Assay results reported in article PMC4676015, “Variant fatty acid-like molecules Conjugation, novel approaches for extending the stability of therapeutic peptides” (Scientific Reports, 2015).

Columns and labels:
[1] = target: T1, DPP IV enzyme (Homo sapiens, UniProt P27487); experiment: Stability against DPP IV proteolysis with or without HSA; assay type: in vitro ADME
T1 construct: purchased Sigma-Aldrich

[2] = target: T2, GLP-1 receptor (GLP-1R) (Rattus norvegicus, UniProt P32301); experiment: GLP-1 receptor binding assay (cellular ELISA)
T2 construct: endogenous in cells; host or cells: rat INS-1 cells
T2 sequence (P32301 22-463): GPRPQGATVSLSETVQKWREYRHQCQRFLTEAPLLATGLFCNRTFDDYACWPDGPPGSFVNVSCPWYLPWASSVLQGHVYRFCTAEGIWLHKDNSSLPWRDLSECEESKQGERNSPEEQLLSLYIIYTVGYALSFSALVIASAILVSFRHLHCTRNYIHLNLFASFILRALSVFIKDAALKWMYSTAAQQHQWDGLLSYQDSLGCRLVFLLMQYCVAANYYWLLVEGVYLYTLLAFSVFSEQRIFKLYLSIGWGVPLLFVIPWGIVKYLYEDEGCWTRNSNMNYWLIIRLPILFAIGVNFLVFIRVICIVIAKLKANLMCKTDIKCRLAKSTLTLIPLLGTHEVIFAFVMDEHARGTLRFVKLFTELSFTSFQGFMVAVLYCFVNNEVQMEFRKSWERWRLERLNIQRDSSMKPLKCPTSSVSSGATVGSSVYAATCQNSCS
Procedure, shortened: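 Cells were fixed with 4% paraformaldehyde, quenched with 2% glycine (pH 7.5), then incubated with peptides for 2 h at 37 °C, washed and blocked with 5% BSA. Absorbance was read at 450 nm. Kd was fitted from peptide concentration versus absorbance.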

[3] = Blood retention time measurement; conditions: 500 μg/kg s.c., Wistar rats, n = 5; 0.5-96 h; GLP-1 (7–37) ELISA
[4] = tested on: Wistar rats; experiment: Toxicity study of compound 24 in Wistar rats (blood biochemistry, haematology); assay type: in vivo; conditions: Wistar rats and Kunming mice, GLP guideline of China
Method: Wistar rats (n = 8) and Kunming mice (n = 30) were employed in this study to investigate the acute toxicity of compound 24. Compound 24 was intraperitoneally administered with three doses of 5, 15 and 50 mg/kg/2 days for 30 days. Controls received a similar volume of sodium dihydrogen phosphate. At the end of the experimental period, overnight fasted animals were sacrificed by cervical decapitation under light ether anesthesia and blood was collected, serum was separated by centrifuging at 3,000 rpm for 10 min. The serum was used for the assay of the biochemical parameters using Chemistry Analyzer […] (Vital, Netherlands).

[5] = tested on: Wistar rats; experiment: Single-dose glucoregulatory assay (glucose tolerance test); assay type: in vivo; conditions: calculated from the single dose glucose tolerance test in rats
Method: In this assay, the derivatives were administered once, and the blood glucose levels were monitored over 120 h. It was presumed that the apparent half-lives of the derivatives could be obtained by this single-dose glucose tolerance test, which would be beneficial for the determination of the administration frequency in future long-term glucose tolerance tests. Each derivative (300 μg/kg body weight) was subcutaneously injected into fasting male Wistar rats (n = 7 per group) 30 min prior to glucose administration. GLP-1 and saline were injected into the control animals. Rats were given 2 g glucose/kg body weight via intraperitoneal injections. Blood was drawn from the tail vein, and glucose levels were measured using a glucometer 30 min after glucose administration. Chronic glucose injections (2 g/kg body weight) were administered 30 min prior to each blood glucose measurement time point during the 120-h experimental period.

T1 sequence (P27487 whole entry, species assumed): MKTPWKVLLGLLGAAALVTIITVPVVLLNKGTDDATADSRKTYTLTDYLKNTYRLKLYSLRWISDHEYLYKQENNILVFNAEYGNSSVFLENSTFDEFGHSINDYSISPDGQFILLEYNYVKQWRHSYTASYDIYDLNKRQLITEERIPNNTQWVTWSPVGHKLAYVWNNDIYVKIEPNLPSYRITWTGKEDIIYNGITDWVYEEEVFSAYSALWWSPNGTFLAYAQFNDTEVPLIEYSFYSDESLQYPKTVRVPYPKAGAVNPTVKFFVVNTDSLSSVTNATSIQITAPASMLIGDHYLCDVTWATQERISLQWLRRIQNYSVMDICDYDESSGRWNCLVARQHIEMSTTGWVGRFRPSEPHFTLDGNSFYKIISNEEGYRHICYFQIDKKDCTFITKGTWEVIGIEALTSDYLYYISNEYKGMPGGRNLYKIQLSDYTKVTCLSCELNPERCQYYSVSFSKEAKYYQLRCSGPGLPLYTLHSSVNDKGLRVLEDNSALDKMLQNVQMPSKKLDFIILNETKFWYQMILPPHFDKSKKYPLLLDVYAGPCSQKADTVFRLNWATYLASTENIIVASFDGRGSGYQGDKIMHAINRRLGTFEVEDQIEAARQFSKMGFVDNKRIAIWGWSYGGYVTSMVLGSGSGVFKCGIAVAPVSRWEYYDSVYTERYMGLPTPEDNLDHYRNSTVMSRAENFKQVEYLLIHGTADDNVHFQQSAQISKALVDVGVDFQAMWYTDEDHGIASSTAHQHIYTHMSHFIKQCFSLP

For CC[C@H](C)[C@H](NC(=O)[C@H](Cc1ccccc1)NC(=O)[C@H](CCC(=O)NCCCCCCCCCCCC(=O)O)NC(=O)[C@H](CCCCN)NC(=O)[C@H](C)NC(=O)[C@H](C)NC(=O)[C@H](CCC(N)=O)NC(=O)CNC(=O)[C@H](CCC(=O)O)NC(=O)[C@H](CC(C)C)NC(=O)[C@H](Cc1ccc(O)cc1)NC(=O)[C@H](CO)NC(=O)[C@H](CO)NC(=O)[C@@H](NC(=O)[C@H](CC(=O)O)NC(=O)[C@H](CO)NC(=O)[C@@H](NC(=O)[C@H](Cc1ccccc1)NC(=O)[C@@H](NC(=O)CNC(=O)[C@H](CCC(=O)O)NC(=O)[C@H](C)NC(=O)[C@@H](N)Cc1c[nH]cn1)[C@@H](C)O)[C@@H](C)O)C(C)C)C(=O)N[C@@H](C)C(=O)N[C@@H](Cc1c[nH]c2ccccc12)C(=O)N[C@@H](CC(C)C)C(=O)N[C@H](C(=O)N[C@@H](CCCCN)C(=O)NCC(=O)N[C@@H](CCCNC(=N)N)C(=O)NCC(=O)O)C(C)C [compound 24], the “detectability of full-length peptide at 24 h” value ([1]; DPP IV 0.1 mg/ml, pH 7.0, in the presence of human serum albumin (2%), peptide 1 mg/ml, 37 °C, GLP-1 (7–37) ELISA) was “still detectable at 24 h”, the “AUC0–24 h, amount of undigested GLP-1 fragments compared with wild-type GLP-1” value ([1]; DPP IV proteolysis solution, 37 °C, 0-24 h, GLP-1 (7–37) ELISA, P < 0.01) was “approximately 3.5 fold” and the “AUCGLP-1(7–37) in proteolysis solution compared to native GLP-1” value ([1]; DPP IV proteolysis solution, 37 °C, GLP-1 (7–37) ELISA, P < 0.01) was “significantly increased”. The “degradation rate against DPP IV compared with compounds 6 and 21, respectively” value ([1]; DPP IV proteolysis, same carbon chain length without free carboxyl group as comparator) was “significantly lower degradation rates”, the Kd [2] was 17.6 ± 1.76 nM and the “increase of circulating amount (AUC GLP-1 (7-37)) compared with native GLP-1” value [3] was 2.7 fold. The “acute toxicity and blood biochemistry tests” value [4] was “no toxicity was observed” and the observed half-life [5] was 9.6 h.
